Measurements: US20220315554A1, “COMPOUNDS COMPRISING A […] LIGAND AND USE THEREOF” (priority 2019, published 2022)
Numbered stars: 1 amine (or outer) side, 2 acyl side, 3 side chain; on linkers, the order of the positions; unused ones are H or OH. Bridge positions count the residues as written; N and C are the ends. Square brackets hold non-standard residues; d marks the D form. Peptide text beside a SMILES is read from it. * marks the point of attachment. X22 = O=C1CN2CCN3CCN(CC(=O)N4CCN(Cc5cc(C[*:1])cc(C[*:2])c5)CC4)CCN(CC2)CC(=O)[O][Lu]([O]1)[O]C(=O)C3; TBMB(SCH2CH2NH-DOTA) = O=C(O)CN1CCN(CC(=O)O)CCN(CC(=O)NCCSCc2cc(C[*:1])cc(C[*:2])c2)CCN(CC(=O)O)CC1; X8 = O=C1CN2CCN3CCN(CC(=O)N4CCN(Cc5cc(C[*:1])cc(C[*:2])c5)CC4)CCN(CC2)CC(=O)[O][Ga]([O]1)[O]C(=O)C3; X13 = O=C(O)CN1CCN(CC(=O)O)CCN(CC(=O)NCCSCc2cc(CSCCN[*:2])cc(C[*:1])c2)CCN(CC(=O)O)CC1; Phe(2-CF3) = N[C@@H](Cc1ccccc1C(F)(F)F)C(=O)O; Hexanoyl = CCCCCC(=O)*; Sar = CNCC(=O)O

Experiments:
[1] = target: T1, FAP-expressing human WI-38 fibroblasts (Homo sapiens, UniProt Q12884); experiment: Competitive FACS binding assay; conditions: pIC50 Category (FACS), competition with 3 nM Cy5-labeled compound, 4° C., 1 hour
T1 construct: FAP-expressing human WI-38 fibroblasts (ECACC) were cultured in EMEM; host or cells: WI-38 human fibroblasts
T1 sequence (Q12884 1-760): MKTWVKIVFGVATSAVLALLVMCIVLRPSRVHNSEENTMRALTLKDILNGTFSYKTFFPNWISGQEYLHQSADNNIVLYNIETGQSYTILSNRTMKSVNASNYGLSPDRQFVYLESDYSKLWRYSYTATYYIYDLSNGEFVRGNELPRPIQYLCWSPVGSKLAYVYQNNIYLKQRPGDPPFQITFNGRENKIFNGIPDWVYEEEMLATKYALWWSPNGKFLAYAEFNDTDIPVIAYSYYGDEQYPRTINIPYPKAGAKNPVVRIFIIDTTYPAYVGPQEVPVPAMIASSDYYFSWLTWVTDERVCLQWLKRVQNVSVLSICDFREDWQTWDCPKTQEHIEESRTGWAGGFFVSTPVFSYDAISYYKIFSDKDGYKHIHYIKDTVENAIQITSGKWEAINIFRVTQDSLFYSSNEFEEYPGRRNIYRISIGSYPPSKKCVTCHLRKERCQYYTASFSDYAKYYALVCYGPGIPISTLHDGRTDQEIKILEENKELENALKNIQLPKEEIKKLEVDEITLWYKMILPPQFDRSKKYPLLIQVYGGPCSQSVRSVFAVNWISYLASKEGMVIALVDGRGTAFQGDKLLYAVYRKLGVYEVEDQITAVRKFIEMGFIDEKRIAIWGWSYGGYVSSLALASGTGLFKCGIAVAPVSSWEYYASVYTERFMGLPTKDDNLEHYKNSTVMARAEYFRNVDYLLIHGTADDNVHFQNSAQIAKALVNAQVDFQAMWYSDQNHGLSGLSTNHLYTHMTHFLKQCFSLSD
Method: Cells were analyzed in an Attune NxT flow cytometer. […]

Human recombinant FAP [2] = target: T2, Human recombinant FAP (Homo sapiens, UniProt Q12884); experiment: Surface plasmon resonance (Biacore) assay; format: binding
T2 sequence (Q12884 1-760): T1 sequence (Q12884 1-760)

Human recombinant FAP [3] = target: T2, Human recombinant FAP; experiment: FRET-based FAP protease activity assay; format: biochemical; parameters: purchased R&D systems 3715-SE; conditions: pIC50 Category (Activity), FRET substrate, 37° C.

| Kd (Human recombinant FAP [2]) [nM] | IC50 [1] [nM] | IC50 (Human recombinant FAP [3]) [nM] | SMILES | IC50 ([1]; WI-38 fibroblasts) [nM] | IC50 (Human recombinant FAP [3]; recombinant human FAP) [nM] |
| --- | --- | --- | --- | --- | --- |
| < 10 |  |  | CCCCCC(=O)N[C@H]1CSCc2cc(CSCCNC(=O)CN3CCN(CC(=O)O)CCN(CC(=O)O)CCN(CC(=O)O)CC3)cc(c2)CSC[C@@H](C(=O)O)NC(=O)[C@H](Cc2cccc3ccccc23)NC(=O)[C@H](CCC(N)=O)NC(=O)[C@H]([C@@H](C)O)NC(=O)[C@@H]2CCCN2C(=O)[C@@H]2CCCN2C1 [3BP-3650, Hex-[Cys(tMeBn(DOTA-AET))-Pro-Pro-Thr-Gln-1Ni-Cys]-OH] | < 10 | < 10 |
| < 10 |  |  | CCCCCC(=O)N[C@H]1CSCc2cc(CSCCNC(=O)CN3CCN(CC(=O)O)CCN(CC(=O)O)CCN(CC(=O)O)CC3)cc(c2)CSC[C@@H](C(=O)NCC(=O)O)NC(=O)[C@H](Cc2ccccc2)NC(=O)[C@H](CCC(N)=O)NC(=O)[C@H]([C@@H](C)O)NC(=O)[C@@H]2CCCN2C(=O)[C@@H]2CCCN2C1 [3BP-3656, Hex-[Cys(tMeBn(DOTA-AET))-Pro-Pro-Thr-Gln-Phe-Cys]-Gly-OH] | < 10 | < 10 |
| < 10 |  |  | CCCCCC(=O)N[C@H]1CSCc2cc(CSCCNC(=O)CN3CCN(CC(=O)O)CCN(CC(=O)O)CCN(CC(=O)O)CC3)cc(c2)CSC[C@@H](C(=O)NCCCC(=O)O)NC(=O)[C@H](Cc2ccccc2)NC(=O)[C@H](CCC(N)=O)NC(=O)[C@H]([C@@H](C)O)NC(=O)[C@@H]2CCCN2C(=O)[C@@H]2CCCN2C1 [3BP-3657, Hex-[Cys(tMeBn(DOTA-AET))-Pro-Pro-Thr-Gln-Phe-Cys]-Gab-OH] | < 10 | < 10 |
| < 10 | < 10 | < 10 | CCCCCC(=O)N[C@H]1CSCc2cc(CSCCNC(=O)CN3CCN(CC(=O)O)CCN(CC(=O)O)CCN(CC(=O)O)CC3)cc(c2)CSC[C@@H](C(=O)N[C@@H](CO)C(=O)O)NC(=O)[C@H](Cc2ccccc2)NC(=O)[C@H](CCC(N)=O)NC(=O)[C@H]([C@@H](C)O)NC(=O)[C@@H]2CCCN2C(=O)[C@@H]2CCCN2C1 [3BP-3658, Hex-[Cys(tMeBn(DOTA-AET))-Pro-Pro-Thr-Gln-Phe-Cys]-Ser-OH] |  |  |
| < 10 | < 10 | < 10 | CCCCCC(=O)N[C@H]1CSCc2cc(CSCCNC(=O)CN3CCN(CC(=O)O)CCN(CC(=O)O)CCN(CC(=O)O)CC3)cc(c2)CSC[C@@H](C(=O)N(C)CC(=O)O)NC(=O)[C@H](Cc2ccccc2)NC(=O)[C@H](CCC(N)=O)NC(=O)[C@H]([C@@H](C)O)NC(=O)[C@@H]2CCCN2C(=O)[C@@H]2CCCN2C1 [3BP-3659, Hex-[Cys(tMeBn(DOTA-AET))-Pro-Pro-Thr-Gln-Phe-Cys]-Nmg-OH] |  |  |
| < 10 | < 10 | < 10 | CCCCCC(=O)N[C@H]1CSCc2cc(CSCCNC(=O)CN3CCN(CC(=O)O)CCN(CC(=O)O)CCN(CC(=O)O)CC3)cc(c2)CSC[C@@H](C(=O)N[C@H](CC(=O)O)Cc2ccccc2)NC(=O)[C@H](Cc2ccccc2)NC(=O)[C@H](CCC(N)=O)NC(=O)[C@H]([C@@H](C)O)NC(=O)[C@@H]2CCCN2C(=O)[C@@H]2CCCN2C1 [3BP-3660, Hex-[Cys(tMeBn(DOTA-AET))-Pro-Pro-Thr-Gln-Phe-Cys]-Bhf-OH] |  |  |
| < 10 | < 10 | < 10 | CCCCCC(=O)N[C@H]1CSCc2cc(CSCCNC(=O)CN3CCN(CC(=O)O)CCN(CC(=O)O)CCN(CC(=O)O)CC3)cc(c2)CSC[C@@H](C(=O)O)NC(=O)[C@H](Cc2ccccc2)NC(=O)[C@H](CCC(N)=O)NC(=O)[C@H]([C@@H](C)O)NC(=O)[C@@H]2CCCN2C(=O)[C@@H]2CCCN2C1 [3BP-3678, Hex-[Cys(tMeBn(DOTA-AET))-Nmg-Pro-Thr-Gln-Phe-Cys]-OH] |  |  |
| < 10 | < 10 | < 10 | CCCCCC(=O)N[C@H]1CSCc2cc(CSCCNC(=O)CN3CCN(CC(=O)O)CCN(CC(=O)O)CCN(CC(=O)O)CC3)cc(c2)CSC[C@@H](C(=O)O)NC(=O)[C@H](Cc2ccccc2)NC(=O)[C@H](CCC(N)=O)NC(=O)[C@H]([C@@H](C)O)NC(=O)[C@@H]2C[C@@H](O)CN2C(=O)[C@@H]2CCCN2C1 [3BP-3679, Hex-[Cys(tMeBn(DOTA-AET))-Pro-Hyp-Thr-Gln-Phe-Cys]-OH] |  |  |
| < 10 | < 10 | < 10 | CCCCCC(=O)N[C@H]1CSCc2cc(CSCCNC(=O)CN3CCN(CC(=O)O)CCN(CC(=O)O)CCN(CC(=O)O)CC3)cc(c2)CSC[C@@H](C(=O)O)NC(=O)[C@H](Cc2ccccc2C(F)(F)F)NC(=O)[C@H](CCC(N)=O)NC(=O)[C@H]([C@@H](C)O)NC(=O)[C@@H]2CCCN2C(=O)CN(C)C1=O [3BP-3680, Hex-[Cys(tMeBn(DOTA-AET))-Pro-Pro-Thr-Gln-Otf-Cys]-OH] (Hexanoyl-C[Sar]PTQ[Phe(2-CF3)]C-OH; linker 1-7 via TBMB(SCH2CH2NH-DOTA)) |  |  |

| SMILES | Kd (Human recombinant FAP [2]) [nM] | IC50 [1] [nM] | IC50 (Human recombinant FAP [3]) [nM] | IC50 ([1]; WI-38 fibroblasts) [nM] | IC50 (Human recombinant FAP [3]; recombinant human FAP) [nM] |
| --- | --- | --- | --- | --- | --- |
| CCCCCC(=O)N[C@H]1CSCc2cc(cc(CN3CCN(C(=O)CN4CCN5CCN6CCN(CC4)CC(=O)[O][Lu]([O]C(=O)C6)[O]C(=O)C5)CC3)c2)CSC[C@@H](C(=O)N[C@@H](CC(=O)O)C(N)=O)NC(=O)[C@H](Cc2ccccc2)NC(=O)[C@H](CCC(N)=O)NC(=O)[C@H]([C@@H](C)O)NC(=O)[C@@H]2CCCN2C(=O)[C@@H]2CCCN2C1=O [3BP-3591, Lutetium-Complex of Hex-[Cys(tMeBn(DOTA-PP))-Pro-Pro-Thr-Gln-Phe-Cys]-Asp-NH2] (Hexanoyl-CPPTQFCD-NH2; linker 1-7 via X22) | < 10 |  |  | < 10 | < 10 |
| CCCCCC(=O)N[C@H]1CSCc2cc(cc(CN3CCN(C(=O)CN4CCN5CCN6CCN(CC4)CC(=O)[O][Ga]([O]C(=O)C6)[O]C(=O)C5)CC3)c2)CSC[C@@H](C(=O)N[C@@H](CC(=O)O)C(N)=O)NC(=O)[C@H](Cc2ccccc2)NC(=O)[C@H](CCC(N)=O)NC(=O)[C@H]([C@@H](C)O)NC(=O)[C@@H]2CCCN2C(=O)[C@@H]2CCCN2C1=O [3BP-3592, Gallium-Complex of Hex-[Cys(tMeBn(DOTA-PP))-Pro-Pro-Thr-Gln-Phe-Cys]-Asp-NH2] (Hexanoyl-CPPTQFCD-NH2; linker 1-7 via X8) | < 10 |  |  | < 10 | < 10 |
| CCCCCC(=O)N[C@H]1CSCc2cc(CSCCNC(=O)CN3CCN(CC(=O)O)CCN(CC(=O)O)CCN(CC(=O)O)CC3)cc(c2)CSC[C@@H](C(=O)NCCC(=O)O)NC(=O)[C@H](Cc2ccccc2)NC(=O)[C@H](CCC(N)=O)NC(=O)[C@H]([C@@H](C)O)NC(=O)[C@@H]2CCCN2C(=O)[C@@H]2CCCN2C1=O [3BP-3651, Hex-[Cys(tMeBn(DOTA-AET))-Pro-Pro-Thr-Gln-Phe-Cys]-Bal-OH] | < 10 |  |  | < 10 | < 10 |
| CCCCCC(=O)N[C@H]1CSCc2cc(CSCCNC(=O)CN3CCN(CC(=O)O)CCN(CC(=O)O)CCN(CC(=O)O)CC3)cc(c2)CSCCNC(=O)[C@H](Cc2ccccc2)NC(=O)[C@H](CCC(N)=O)NC(=O)[C@H]([C@@H](C)O)NC(=O)[C@@H]2CCCN2C(=O)[C@@H]2CCCN2C1=O [3BP-3654, Hex-[Cys(tMeBn(DOTA-AET))-Pro-Pro-Thr-Gln-Phe-AET]] (Hexanoyl-CPPTQF; linker 1-C via X13) | < 10 |  |  | < 10 | < 10 |
| CCCCCC(=O)N[C@H]1CSCc2cc(CSCCNC(=O)CN3CCN(CC(=O)O)CCN(CC(=O)O)CCN(CC(=O)O)CC3)cc(c2)CSC[C@@H](C(=O)N[C@@H](CC(=O)O)C(=O)O)NC(=O)[C@H](Cc2ccccc2)NC(=O)[C@H](CCC(N)=O)NC(=O)[C@H]([C@@H](C)O)NC(=O)[C@@H]2CCCN2C(=O)[C@@H]2CCCN2C1=O [3BP-3665, Hex-[Cys(tMeBn(DOTA-AET))-Pro-Pro-Thr-Gln-Phe-Cys]-Asp-OH] (Hexanoyl-CPPTQFCD-OH; linker 1-7 via TBMB(SCH2CH2NH-DOTA)) | < 10 | < 10 | < 10 |  |  |
| CCCCCS(=O)(=O)N[C@H]1CSCc2cc(CSCCNC(=O)CN3CCN(CC(=O)O)CCN(CC(=O)O)CCN(CC(=O)O)CC3)cc(c2)CSC[C@@H](C(=O)O)NC(=O)[C@H](Cc2ccccc2)NC(=O)[C@H](CCC(N)=O)NC(=O)[C@H]([C@@H](C)O)NC(=O)[C@@H]2CCCN2C(=O)[C@@H]2CCCN2C1=O [3BP-3690, Pentyl-SO2-[Cys(tMeBn(DOTA-AET))-Pro-Pro-Thr-Gln-Phe-Cys]-OH] | < 10 | < 10 | < 10 |  |  |
